The results in this text go back to patent US6727076B2 (priority 1995, dated 2004).

Each structure is given as a SMILES string. In brackets after ≈: the same amount, converted by molar mass. Like-named read-outs stand apart in the source and are kept apart here.

For experiment [1], the system named is E. coli strain 14443 (MG1655 (FB426)). Type of experiment: cell-based. Further: key: '+' indicates that the organism tested was capable of utilizing the carbon source listed; '−' indicates that the organism tested was not capable of utilizing the carbon source listed; 'w' indicates weak positive reactions.
Experiment [2] relates to E. coli strain 14444 (MG1655 xylA). It is filed as cell-based.
Experiment [3] deals with E. coli strain 14445 (MG1655 himA). It is filed as cell-based.
For experiment [4], the system named is E. coli strain 6320 (W3110). It is filed as cell-based. Further: key: '+' indicates that the organism tested was capable of utilizing the carbon source listed; '−' indicates that the organism tested was not capable of utilizing the carbon source listed; 'w' indicates weak positive reactions.
For experiment [5], the system named is E. coli strain 6321 (MG1655). It is filed as cell-based. Further: key: '+' indicates that the organism tested was capable of utilizing the carbon source listed; '−' indicates that the organism tested was not capable of utilizing the carbon source listed; 'w' indicates weak positive reactions.
The test system of experiment [6] is E. coli strain 6322 (EMG2 (K12, λF+)). Type of experiment: cell-based. Further: key: '+' indicates that the organism tested was capable of utilizing the carbon source listed; '−' indicates that the organism tested was not capable of utilizing the carbon source listed; 'w' indicates weak positive reactions.
For experiment [7], the system named is E. coli strain 11547 (O157:H7). It is filed as cell-based.
The subject of experiment [8] is E. coli strain 13671 (O157:H? gur+). It is filed as cell-based.
The test system of experiment [9] is E. coli strain 13673 (O157). It is filed as cell-based.
Experiment [10] deals with E. coli strain 13675 (O157). Type of experiment: cell-based.
In experiment [11] the test system is E. coli 287 (ATCC #11775). Type of experiment: cell-based.
The test system of another experiment is T. harzianum DAOM 190830. It is filed as cell-based, Trichoderma harzianum.
For experiment [12], the system named is E. coli MG1655. Type of experiment: cell-based.
In another experiment the test system is E. coli. Type of experiment: cell-based.
Experiment [13] has as its system E. coli MG1655. Type of experiment: cell-based. The source holds these as a separate data set.
The subject of experiment [14] is Escherichia coli (ATCC#25922). As to the kind of experiment: microbe, parasite or virus in culture. Type of experiment: cell-based.
The subject of experiment [15] is Staphylococcus aureus (ATCC #29213). Briefly: microbe, parasite or virus in culture. It is filed as cell-based. The note with it: Staphylococcus aureus, ATCC29213, 18 h.

For the compound `OC[C@H]1O[C@H](OCC2O[C@@H](O)[C@H](O)[C@@H](O)[C@@H]2O)[C@H](O)[C@@H](O)[C@H]1O` (stereo partly drawn) [D-melibiose], the carbon source utilization result in [1], in [2], in experiment [3], in experiment [4], in [5] and in experiment [6] was “+” in each case. Also, the carbon source utilization result in experiment [7], in experiment [8], in experiment [9] and in experiment [10] was “+” each time. Also, the “carbon source utilization result” value (in experiment [11]; with T. harzianum DAOM 190830) was “positive” each time.

For `N[C@@H](CCC(=O)O)C(=O)O` [L-glutamic acid], the “carbon source utilization, in words” value in [3] is “negative”. Also, in the experiment on T. harzianum DAOM 190830, the “carbon source utilization result” value is reported as “positive”. Also, in the experiment on E. coli MG1655 [12], the “suitability as nitrogen source (growth, purple color)” value (from here on “suitability as nitrogen source”) is reported as “positive”. Besides, in the experiment on E. coli, the “use as carbon source” value was “can use”.

As to `O=P(O)(O)O[C@H]1O[C@H](CO)[C@@H](O)[C@H](O)[C@H]1O` [Glucose-1-phosphate], the carbon source utilization result in experiment [1], in experiment [2], in [3], in [4], in experiment [5] and in experiment [6] was “+” in each case. The carbon source utilization entry in [7], in experiment [8], in [9] and in experiment [10] was “+” throughout. For the same compound, the “carbon source utilization result” value in [11] was “positive”. In addition, the “suitability as phosphorus source (growth, purple color)” value with E. coli MG1655 [13] was “positive”.

As for `NC[C@H]1O[C@H](O[C@H]2[C@H](O)[C@@H](O[C@H]3O[C@H](CO)[C@@H](O)[C@H](N)[C@H]3O)[C@H](N)C[C@@H]2N)[C@H](O)[C@@H](O)[C@@H]1O` [Kanamycin, kanamycin], the MIC in experiment [14] fell in the range of 8 to 16 µg/mL; in [14] (Escherichia coli, ATCC25922, 18 h), 16 to 32 µg/mL (≈ 33 to 66 µM); in [15] it was 16 to 32 µg/mL (≈ 33 to 66 µM).

For the compound `N[C@@H](CO)C(=O)O` [L-serine], the “carbon source utilization result” value (in [11]; in the experiment with T. harzianum DAOM 190830) was “positive” throughout. Further, the “suitability as nitrogen source” value with E. coli MG1655 [12] is “not suitable”. Moreover, the “use as carbon source” value in the experiment with E. coli is “can use”.

Regarding `NCCO` [2-amino ethanol], the carbon source utilization entry in experiment [1], in experiment [2], in [3], in experiment [4], in experiment [5] and in [6] was “−” in each case. Also, the carbon source utilization entry in experiment [7], in experiment [8], in [9] and in [10] was “−” each time. Besides, the “carbon source utilization result” value in experiment [11] was “positive/negative”. The “suitability as nitrogen source” value in the experiment on E. coli MG1655 [12] is on record as “not suitable”.

For the compound `NC(=O)C[C@H](N)C(=O)O` [L-asparagine], the “carbon source utilization result” value (in [11]; in the experiment on T. harzianum DAOM 190830) was “positive” each time. Besides, the “suitability as nitrogen source” value in the experiment on E. coli MG1655 [12] is listed as “positive”. Also, in the experiment with E. coli, the “use as carbon source” value is listed as “can use”.

Turning to `COC1OC(CO)C(O)C(O)C1O` (stereo not drawn) [β-methyl glucoside], the carbon source utilization entry in experiment [1], in experiment [2], in [3], in experiment [4], in experiment [5] and in [6] was “+” each time. In addition, the carbon source utilization entry in experiment [7], in experiment [8], in [9] and in [10] was “+” throughout. The “carbon source utilization result” value (in [11]; in the experiment with T. harzianum DAOM 190830) was “positive” throughout.

On to `C[C@@H](O)[C@H](N)C(=O)O` [L-threonine], for which the “carbon source utilization, in words” value in [2] and in experiment [3] was “negative” throughout. Also, the “suitability as nitrogen source” value with E. coli MG1655 [12] is reported as “not suitable”. The “use as carbon source” value with E. coli is “can use”.

As for `N[C@H](CO)C(=O)O` [D-serine], the “carbon source utilization result” value in experiment [11] is listed as “positive”. In addition, the “suitability as nitrogen source” value with E. coli MG1655 [12] was “not suitable”. The “use as carbon source” value with E. coli was “can use”.

As to `O=C(O)[C@@H]1CCCN1` [L-proline], the “carbon source utilization, in words” value in experiment [2] is listed as “negative”. Besides, the “carbon source utilization result” value in the experiment on T. harzianum DAOM 190830 is recorded as “positive”. In the experiment on E. coli MG1655 [12], the “suitability as nitrogen source” value was “positive”. Also, the “use as carbon source” value in the experiment on E. coli is reported as “can use”.

Consider `C[C@H](N)C(=O)O` [L-alanine], for which the “carbon source utilization result” value (in experiment [11]; in the experiment with T. harzianum DAOM 190830) was “positive” throughout. Also, the “suitability as nitrogen source” value in the experiment with E. coli MG1655 [12] is recorded as “not suitable”. For the same compound, in the experiment on E. coli, the “use as carbon source” value is on record as “can use”.

`N[C@H](CC(=O)O)C(=O)O` [D-aspartic acid]: in the experiment on E. coli MG1655 [12], the “suitability as nitrogen source” value is recorded as “not suitable”. For the same compound, the “use as carbon source” value with E. coli was “can use”.

For the compound `O=P(O)(O)OCC(O)CO` (racemic) [D,L-α-glycerol phosphate], the carbon source utilization result in experiment [1] is “−”; in experiment [2], “−”; in experiment [3], “−”; in [4], “−”; in experiment [5] it was “+”; in [6], “+”. Besides, the carbon source utilization result in experiment [7], in [8], in [9] and in experiment [10] was “+” throughout. The “carbon source utilization result” value in experiment [11] is reported as “positive”. Also, in the experiment with E. coli MG1655 [13], the “suitability as phosphorus source (growth, purple color)” value is “positive”.

In the case of `OC[C@H]1O[C@H](O[C@H]2O[C@H](CO)[C@@H](O)[C@H](O)[C@H]2O)[C@H](O)[C@@H](O)[C@@H]1O` [D-trehalose], the carbon source utilization result in experiment [1], in experiment [2], in experiment [3], in experiment [4], in experiment [5] and in [6] was “+” in each case. In addition, the carbon source utilization result in [7], in experiment [8], in [9] and in [10] was “+” each time. Besides, the “carbon source utilization result” value (in [11]; in the experiment with T. harzianum DAOM 190830) was “positive” in each case.

As to `NC(=O)CC[C@H](N)C(=O)O` [L-glutamine], in the experiment with E. coli MG1655 [12], the “suitability as nitrogen source” value is reported as “positive”. For the same compound, the “use as carbon source” value in the experiment on E. coli is “can use”.

Regarding `C[C@H](O)[C@@H](N)C(=O)O` [D-threonine], in the experiment on E. coli, the “use as carbon source” value was “can use”.

In the case of `C[C@@H](N)C(=O)O` [D-alanine], the “carbon source utilization result” value in [11] is recorded as “positive”. The “suitability as nitrogen source” value with E. coli MG1655 [12] is “positive”. The “use as carbon source” value in the experiment on E. coli is given as “can use”.

Regarding `N[C@@H](C(=O)O)[C@@H](O)[C@H](O)[C@H](O)CO` [D-glucosaminic acid], the carbon source utilization entry in [1], in [2], in experiment [3], in experiment [4], in [5] and in experiment [6] was “−” throughout. Further, the carbon source utilization entry in [7], in [8], in experiment [9] and in [10] was “−” throughout. Moreover, the “carbon source utilization result” value in experiment [11] is “negative”.

In the case of `N[C@@H](CC(=O)O)C(=O)O` [L-aspartic acid], in experiment [11], the “carbon source utilization result” value was “positive”. Further, the “suitability as nitrogen source” value with E. coli MG1655 [12] is reported as “positive”. Besides, in the experiment with E. coli, the “use as carbon source” value was “can use”.

As to `O=C1O[C@@H]([C@H](O)CO)[C@H](O)[C@H]1O` [D-galactonic acid-γ-lactone], the carbon source utilization entry in [1] is “+”; in experiment [2], “+”; in [3], “+”; in experiment [4] it was “−”; in experiment [5], “+”; in [6], “+”. Also, the carbon source utilization entry in [7], in [8], in experiment [9] and in experiment [10] was “−” throughout. For the same compound, the “carbon source utilization, in words” value in [7], in experiment [8], in [9] and in [10] was “negative” throughout. The “carbon source utilization result” value in experiment [11] was “positive”.
